The values that follow come from ChEMBL document CHEMBL5344429, “1,3-Substituted β-Carboline Derivatives as Potent Chemotherapy for the Treatment of Cystic Echinococcosis” (J Med Chem, 2023).

Active and inactive are the calls of the source. The rule behind the calls is not given here.

In data set [1] the test system is Echinococcus granulosus. The data set is described as follows: Parasiticidal activity against Echinococcus granulosus protoscolices […] by eosin exclusion test. It counts as functional. As to conditions: 1152 h, time 48 day.
Data set [2] deals with Echinococcus granulosus. The data set can be described thus: Parasiticidal activity against Echinococcus granulosus protoscolices assessed as death rate at 1 uM incubated for 48 hrs by eosin exclusion test. It counts as functional.
Data set [3] relates to Echinococcus granulosus. The data set is described as follows: Parasiticidal activity against Echinococcus granulosus protoscolices assessed as degeneration of outer skin at 5 uM incubated for 4 days by scanning electron microscopy. It counts as functional, organism-based. Conditions: time 4.0 day.
The subject of data set [4] is Echinococcus granulosus. The data set can be described thus: Parasiticidal activity against Echinococcus granulosus protoscolices assessed as death rate at 5 uM incubated for 4 days by eosin exclusion test. As to conditions: time 4 day. It counts as functional.
In data set [5] the test system is Echinococcus granulosus. The data set is described as follows: Parasiticidal activity against Echinococcus granulosus protoscolices assessed as increase in death rate at 5 uM incubated for 4 days by darker staining-based light microscopy. It counts as functional, organism-based. Conditions: time 4.0 day.
Data set [6] deals with Echinococcus granulosus. The data set is described as follows: Parasiticidal activity against Echinococcus granulosus cyst assessed as seperation from cuticle at 100 uM incubated for 4 days by scanning electron microscopy. It counts as functional, organism-based. As to conditions: time 4.0 day.
Data set [7] relates to Echinococcus granulosus. The data set is described as follows: Parasiticidal activity against Echinococcus granulosus protoscolices assessed as lethal effect at 0.5 to 5 uM by eosin exclusion test. It counts as functional, organism-based. Conditions: dose 0.5-5 µM, TDE = time-dependent effect.
For data set [8], the system named is Echinococcus granulosus. The data set is described as follows: Parasiticidal activity against Echinococcus granulosus protoscolices assessed as lethal effect incubated for 4 days by eosin exclusion test. It counts as functional, organism-based. As to conditions: dose 0.5-5 µM, time 4.0 day.
Data set [9] in a line: Cmax in Wistar rat at 5 mg/kg, iv by HPLC analysis. It counts as ADME, organism-based. On the set-up: dose 5 mg/kg, route iv. As to conditions: in vivo.
Data set [10] has as its system Echinococcus granulosus. The data set can be described thus: Parasiticidal activity against Echinococcus granulosus assessed as collapse of germinal layers at 100 uM incubated for 4 days by scanning electron microscopy. It counts as functional, organism-based. As to conditions: time 4.0 day.
For data set [11], the system named is Echinococcus granulosus. The data set can be described thus: Parasiticidal activity against Echinococcus granulosus protoscolices assessed as appearance of body shrank at 5 uM incubated for 4 days by scanning electron microscopy analysis. It counts as functional, organism-based. Conditions: time 4.0 day.
In data set [12] the test system is Echinococcus granulosus. The data set is described as follows: Parasiticidal activity against Echinococcus granulosus cyst assessed as formation of dense aggregates at 100 uM incubated for 4 days by scanning electron microscopy. It counts as functional, organism-based. As to conditions: time 4.0 day.
Data set [13] can be described thus: AUC (0 to infinity) in Wistar rat at 5 mg/kg, iv by HPLC analysis. It counts as ADME, organism-based. On the set-up: dose 5 mg/kg, route iv. As to conditions: in vivo.
Data set [14] is described as follows: Oral bioavailability in Wistar rat at 50 mg/kg, […] by HPLC analysis. It counts as ADME, organism-based. As to conditions: in vivo.
The test system of data set [15] is Echinococcus granulosus. The data set is described as follows: Parasiticidal activity against Echinococcus granulosus protoscolices assessed as appearance of blurred marginal structure at 5 uM incubated for 4 days by scanning electron microscopy analysis. It counts as functional, organism-based. As to conditions: time 4.0 day.
Data set [16] deals with Echinococcus granulosus. The data set is described as follows: Parasiticidal activity against Echinococcus granulosus protoscolices assessed as change in ultrastructure at 5 uM incubated for 4 days by scanning electron microscopy. It counts as functional, organism-based. Conditions: time 4.0 day.
Data set [17] deals with Echinococcus granulosus. The data set can be described thus: Parasiticidal activity against Echinococcus granulosus protoscolices assessed as partial vacuolar change at 5 uM incubated for 4 days by scanning electron microscopy analysis. It counts as functional, organism-based. As to conditions: time 4.0 day.
Data set [18] has as its system Echinococcus granulosus. The data set can be described thus: Parasiticidal activity against Echinococcus granulosus protoscolices assessed as appearance of rostellum hooks fall off at 5 uM incubated for 4 days by scanning electron microscopy analysis. It counts as functional, organism-based. Conditions: time 4.0 day.
Data set [19] concerns Echinococcus granulosus. The data set is described as follows: Parasiticidal activity against Echinococcus granulosus protoscolices assessed as loss of hooks at 5 uM incubated for 4 days by scanning electron microscopy. It counts as functional, organism-based. Conditions: time 4.0 day.
Data set [20] concerns Echinococcus granulosus. The data set can be described thus: Parasiticidal activity against Echinococcus granulosus protoscolices assessed as death rate at 0.5 uM incubated for 4 days by eosin exclusion test. It counts as functional. As to conditions: time 4 day.
For data set [21], the system named is Echinococcus granulosus. The data set can be described thus: Parasiticidal activity against Echinococcus granulosus protoscolices assessed as loss of suckers at 5 uM incubated for 4 days by scanning electron microscopy. It counts as functional. Conditions: time 4.0 day.
The test system of data set [22] is Echinococcus granulosus. The data set is described as follows: Inhibition of Echinococcus granulosus. It counts as functional.

With `COc1cccc(-c2nc(NC(=O)c3ccc(CN4CCCN(C)CC4)cc3)cc3c2[nH]c2ccccc23)c1`, the LC50 in data set [1] was found to be 17.9 µM.

`COc1ccc(-c2nc(NC(=O)c3ccc(CN4CCCN(C)CC4)cc3)cc3c2[nH]c2ccccc23)cc1OC` had an LC50 in data set [1] of 13.2 µM. Besides, in [2], the outcome was Active.

Consider `COc1cc(-c2nc(NC(=O)c3ccc(CN4CCCN(C)CC4)cc3)cc3c2[nH]c2ccccc23)cc(OC)c1OC`, for which the LC50 in data set [1] is 16 µM. The result in [2] was Active.

`Cc1ccc(-c2nc(NC(=O)c3ccc(CN4CCC(N5CCCCC5)CC4)cc3)cc3c2[nH]c2ccccc23)cc1` returned a median lethal concentration (LC50) in data set [1] of 12.5 µM. The outcome in data set [2] was Active.

Consider `COc1ccc(-c2nc(NC(=O)c3ccc(CN4CCC(N5CCCCC5)CC4)cc3)cc3c2[nH]c2ccccc23)cc1OC`, for which the outcome in data set [3], in data set [5], in data set [6], in [10], in [11] and in [12] was Active. For the same compound, the result in [15], in data set [16], in data set [17], in [18], in data set [19] and in [21] was Active. For the same compound, the Activity is above 90% in data set [4]; “Tde” in [7]; “Dose-Dependent Effect” in data set [8]; above 50% in data set [20]; 56.27% in data set [2]. For the same compound, the highest level in data set [9] (Cmax) was 1.4 µg/mL. In data set [13], this compound displayed an AUC(0-inf) of 1.77 µg·h/mL. Moreover, the bioavailability in data set [14] is 26.8%. Besides, the LC50 in data set [1] worked out at 3.59 µM.

In [22], `CCCCn1c2ccccc2c2ccnc(-c3ccc(OC)cc3)c21` had an LC50 of 47.8 µM.

In data set [1], `COc1ccc(-c2nc(C(=O)Nc3ccc(CN4CCC(N5CCCCC5)CC4)cc3)cc3c2[nH]c2ccccc23)cc1` showed an LC50 of 7.67 µM. The result in [2] was Active.

With `COc1cccc(-c2nc(C(=O)Nc3ccc(CN4CCC(N5CCCCC5)CC4)cc3)cc3c2[nH]c2ccccc23)c1OC`, the LC50 in data set [1] turned out to be 5.8 µM. In data set [2], the outcome was Active.

The term LC50 denotes the concentration lethal to half of the exposed cells or organisms. A low value points to greater toxicity. The term Cmax denotes the maximum level reached in the sampled fluid or tissue. As a reminder, the AUC(0-inf) is total exposure, with the tail of the curve extrapolated. Low values mean low exposure, high ones high exposure. For orientation: bioavailability means the share of a dose that reaches the circulation, judged against a reference dose that is usually intravenous.
